tested on: MCF7 cells; assay: Cell proliferation assay (ATPlite), MCF-7; type: cell-based, human; conditions: Homo sapiens, inhibition of cell proliferation, 72 h
Experimental: MCF-7 human breast adenocarcinoma cells and HL-60 acute promyelocytic leukaemia cells were obtained from ATCC (LGC Promochem). HG-1 multiple myeloma cells were obtained from Dr. D. Hose (DKFZ Heidelberg). The CellSensor® HRE-bla HCT116 cell line (colorectal carcinoma) was obtained from Invitrogen.
Cells were grown under humidified 95% air, 5% CO2 at 37° C. in Dulbecco's modified Eagle's medium (DMEM: MCF-7) or RPMI 1640 medium (RPMI: HL-60, HG-1) supplemented with 10% fetal bovine serum (FBS), 100 U/ml penicillin and 100 μg/ml streptomycin, 2 mM L-glutamine, and 2 ng/ml IL-6 (for the HG-1 cell line only). The HCT116 cell line was grown under the same atmospheric conditions in McCoy's 5A medium supplemented with 10% FBS and penicillin/streptomycin as above, in addition to blasticidin as a selection marker at a final concentration of 5 μg/ml.
Cell proliferation experiments were carried out in 96-well tissue culture plates with seeding of 2000 cells/well (MCF-7) or 1000 cells/well (HL-60, HG-1) in 100 μl of the relevant medium. Cells were subsequently incubated under the conditions mentioned for 24 h prior to addition of compounds.
For the determination of compound EC50 values, 10 μl compounds at 11× concentrations in 5.5% DMSO were added to the wells at various concentrations yielding a final constant percentage of 0.5% DMSO at the desired 1× compound concentration. As a positive control, cells were treated with 5.5% DMSO. The cells were then incubated for a further 72 h prior to the measurement.
To determine the degree of inhibition of cell proliferation, cells were treated with ATPlite solution according to the manufacturer's instructions (PerkinElmer, ATPlite 1-step Luminescence ATP Detection Assay System) and luciferase readout measured on an Envision HTS multilabel plate reader (PerkinElmer) in luminescence mode according to established protocols. Raw data were imported into an ActivityBase database (IDBS, ID Business Solutions) and EC50 values calculated using the IDBS program ActivityBase XE. Table 2A and 2B show the IC50 values obtained in the above-outlined cell proliferation assay for exemplary compounds of the invention.

Molecule	EC50 [nM]
Cc1ccc(-c2ccc(C#N)s2)cc1NS(=O)(=O)c1ccc(Cl)cc1 [Example 77, 4-Chloro-N-[5-(5-cyano-thiophen-2-yl)-2-methyl-phenyl]-benzenesulfonamide]	< 500
Cc1ccc(S(=O)(=O)Nc2cc(-c3cccc(C#N)n3)ccc2C)cc1 [Example 52, N-[5-(6-Cyano-pyridin-2-yl)-2-methyl-phenyl]-4-methyl-benzenesulfonamide]	500 to 1000
COc1ccc(S(=O)(=O)Nc2cc(-c3ccsc3C#N)ccc2C)cc1 [Example 62, N-[5-(2-Cyano-thiophen-3-yl)-2-methyl-phenyl]-4-methoxy-benzenesulfonamide]	< 500
COc1ccc(S(=O)(=O)Nc2cc(-c3ccc(C#N)nc3)ccc2C)cc1 [Example 61, N-[5-(6-Cyano-pyridin-3-yl)-2-methyl-phenyl]-4-methoxy-benzenesulfonamide]	< 500
COc1cc(C)c(-c2ccc(C)c(NS(=O)(=O)c3ccc(C)cc3)c2)cn1 [Example 36, N-[5-(6-Methoxy-4-methyl-pyridin-3-yl)-2-methyl-phenyl]-4-methyl-benzenesulfonamide]	1000 to 10000
Cc1ccc(S(=O)(=O)Nc2cc(-c3sc(C)nc3C)ccc2C)cc1 [Example 12, N-[5-(2,4-Dimethyl-thiazol-5-yl)-2-methyl-phenyl]-4-methyl-benzenesulfonamide]	< 500
COc1ccc(S(=O)(=O)Nc2cc(-n3cc(C)cc3C)ccc2C)cc1 [Example 40, N-[5-(2,4-Dimethyl-pyrrol-1-yl)-2-methyl-phenyl]-4-methoxy-benzenesulfonamide]	1000 to 10000
Cc1ccc(S(=O)(=O)Nc2cc(-c3ncccc3C(F)(F)F)ccc2C)cc1 [Example 27, 4-Methyl-N-[2-methyl-5-(3-trifluoromethyl-pyridin-2-yl)-phenyl]-benzenesulfonamide]	1000 to 10000
Cc1ccc(-c2ccc(C)c(NS(=O)(=O)c3ccc(C)cc3)c2)cc1 [Example 10, N-(4,4′-Dimethyl-biphenyl-3-yl)-4-methyl-benzenesulfonamide]	1000 to 10000
COc1ccc(S(=O)(=O)Nc2cc(-c3ccnc(C#N)c3)ccc2C)cc1 [Example 75, N-[5-(2-Cyano-pyridin-4-yl)-2-methyl-phenyl]-4-methoxy-benzenesulfonamide]	500 to 1000
Cc1ccc(S(=O)(=O)Nc2cc(-n3cnnn3)ccc2C)cc1 [Example 2, 4-Methyl-N-(2-methyl-5-tetrazol-1-yl-phenyl)-benzenesulfonamide]	1000 to 10000
COc1ccc(S(=O)(=O)Nc2cc(-c3ccsc3)ccc2C)cc1 [Example 14, 4-Methoxy-N-(2-methyl-5-thiophen-3-yl-phenyl)-benzenesulfonamide]	< 500
Cc1ccc(S(=O)(=O)Nc2cc(-c3cscc3C#N)ccc2C)cc1 [Example 69, N-[5-(4-Cyano-thiophen-3-yl)-2-methyl-phenyl]-4-methyl-benzenesulfonamide]	< 500
Cc1ccc(S(=O)(=O)Nc2cc(-c3cncc(C#N)c3)ccc2C)cc1 [Example 34, N-[5-(5-Cyano-pyridin-3-yl)-2-methyl-phenyl]-4-methyl-benzenesulfonamide]	< 500
Cc1ccc(S(=O)(=O)Nc2cc(-c3ccc(F)c(C)n3)ccc2C)cc1 [Example 46, N-[5-(5-Fluoro-6-methyl-pyridin-2-yl)-2-methyl-phenyl]-4-methyl-benzenesulfonamide]	500 to 1000
Cc1ccc(S(=O)(=O)Nc2cc(-c3cc(C(F)(F)F)ccn3)ccc2C)cc1 [Example 38, 4-Methyl-N-[2-methyl-5-(4-trifluoromethyl-pyridin-2-yl)-phenyl]-benzenesulfonamide]	1000 to 10000
Cc1ccc(S(=O)(=O)Nc2cc(-c3cc(C)ccn3)ccc2C)cc1 [Example 31, 4-Methyl-N-[2-methyl-5-(4-methyl-pyridin-2-yl)-phenyl]-benzenesulfonamide]	1000 to 10000
Cc1ccc(S(=O)(=O)Nc2cc(-c3ccc(F)cn3)ccc2C)cc1 [Example 53, N-[5-(5-Fluoro-pyridin-2-yl)-2-methyl-phenyl]-4-methyl-benzenesulfonamide]	< 500
Cc1ccc(S(=O)(=O)Nc2cc(-c3sccc3C)ccc2C)cc1 [Example 24, 4-Methyl-N-[2-methyl-5-(3-methyl-thiophen-2-yl)-phenyl]-benzenesulfonamide]	< 500
Cc1ccc(S(=O)(=O)Nc2cc(-c3ncccc3C)ccc2C)cc1 [Example 28, 4-Methyl-N-[2-methyl-5-(3-methyl-pyridin-2-yl)-phenyl]-benzenesulfonamide]	1000 to 10000
Cc1ccc(S(=O)(=O)Nc2cc(-c3ccc([N+](=O)[O-])cn3)ccc2C)cc1 [Example 55, 4-Methyl-N-[2-methyl-5-(5-nitro-pyridin-2-yl)-phenyl]-benzenesulfonamide]	< 500

More lines, now with the values ahead:

EC50 [nM]	Molecule
500 to 1000	Cc1ccc(-c2ccc(C#N)s2)cc1NS(=O)(=O)c1ccc(C(F)(F)F)cc1 [Example 78, N-[5-(5-Cyano-thiophen-2-yl)-2-methyl-phenyl]-4-trifluoromethyl-benzenesulfonamide]
1000 to 10000	Cc1ccc(-c2ccc(C#N)cc2)cc1NS(=O)(=O)c1ccc([N+](=O)[O-])c(F)c1 [Example 105, N-(4′-cyano-4-methylbiphenyl-3-yl)-3-fluoro-4-nitrobenzenesulfonamide]
500 to 1000	COc1cc(S(=O)(=O)Nc2cc(-c3ccc(C#N)s3)ccc2C)ccc1F [Example 113, N-(5-(5-cyanothiophen-2-yl)-2-methylphenyl)-4-fluoro-3-methoxybenzenesulfonamide]
< 500	Cc1ccc(-c2ccc(C#N)cc2)cc1NS(=O)(=O)c1ccc(Cl)cc1 [Example 97, 4-chloro-N-(4′-cyano-4-methylbiphenyl-3-yl)benzenesulfonamide]
1000 to 10000	COc1ccc(S(=O)(=O)Nc2cc(-c3ccc(SC)cc3)ccc2C)cc1 [Example 82, 4-Methoxy-N-(4-methyl-4′-methylsulfanyl-biphenyl-3-yl)-benzenesulfonamide]
< 500	Cc1ccc(-c2ccc(C#N)cc2)cc1NS(=O)(=O)c1ccc(N)cc1 [Example 87, 4-Amino-N-(4′-cyano-4-methyl-biphenyl-3-yl)-benzenesulfonamide]
< 500	Cc1ccc(-c2ccc(C#N)cc2)cc1NS(=O)(=O)c1ccc(N(C)C)cc1 [Example 115, N-(4′-cyano-4-methylbiphenyl-3-yl)-4-(dimethylamino)benzenesulfonamide]
< 500	Cc1ccc(-c2ccc(C#N)cc2)cc1NS(=O)(=O)c1ccc(N)c(F)c1 [Example 110, 4-amino-N-(4′-cyano-4-methylbiphenyl-3-yl)-3-fluorobenzenesulfonamide]
< 500	Cc1ccc(S(=O)(=O)Nc2cc(C)cc(-c3csc(C)c3)c2)cc1 [Example 94, 4-Methyl-N-[3-methyl-5-(5-methyl-thiophen-3-yl)-phenyl]-benzenesulfonamide]
1000 to 10000	Cc1ccc(-c2ccc(C#N)cc2)cc1NS(=O)(=O)c1ccc([N+](=O)[O-])cc1 [Example 86, N-(4′-Cyano-4-methyl-biphenyl-3-yl)-4-nitro-benzenesulfonamide]
500 to 1000	Cc1ccc(-c2ccc(C#N)s2)cc1NS(=O)(=O)c1ccc(O)cc1 [Example 98, N-(5-(5-cyanothiophen-2-yl)-2-methylphenyl)-4-hydroxybenzenesulfonamide]
< 500	COc1ccc(S(=O)(=O)Nc2cc(-c3ccc(C#N)c(O)c3)ccc2C)cc1 [Example 90, N-(4′-Cyano-3′-hydroxy-4-methyl-biphenyl-3-yl)-4-methoxy-benzenesulfonamide]
< 500	COc1ccc(-c2ccc(C)c(NS(=O)(=O)c3ccc(OC)cc3)c2)cc1 [Example 81, 4-Methoxy-N-(4′-methoxy-4-methyl-biphenyl-3-yl)-benzenesulfonamide]
< 500	Cc1ccc(S(=O)(=O)Nc2cc(-c3ccc([N+](=O)[O-])c(C)n3)ccc2C)cc1 [Example 111, 4-methyl-N-(2-methyl-5-(6-methyl-5-nitropyridin-2-yl)phenyl)benzenesulfonamide]
1000 to 10000	COc1cc(-c2ccc(C)c(NS(=O)(=O)c3ccc([N+](=O)[O-])cc3)c2)ccc1C#N [Example 101, N-(4′-cyano-3′-methoxy-4-methylbiphenyl-3-yl)-4-nitrobenzenesulfonamide]

same assay, conditions: inhibition of cell proliferation, 72 h

Molecule	EC50 [nM]
COc1ccc(S(=O)(=O)Nc2cc(-c3ccc(C#N)s3)ccc2C)cc1OC [Example 108, N-(5-(5-cyanothiophen-2-yl)-2-methylphenyl)-3.4-dimethoxybenzenesulfonamide]	500 to 1000
N-[5-(5-Cyano-pyridin-3-yl)-2-methyl-phenyl]-4-methoxy-benzenesulfonamide [Example 74]	< 500
Cc1ccc(S(=O)(=O)Nc2cc(-c3occc3C#N)ccc2C)cc1 [Example 70, N-[5-(3-Cyo-furan-2-yl)-2-methyl-phenyl]-4-methyl-benzenesulfonamide]	< 500

— patent publication US20120095024A1, “TOLUIDINE SULFONAMIDES AND THEIR USE” (Elara Pharmaceuticals GmbH, priority 2008, published 2012)
